The values that follow come from article PMC5848469 (Combinatorial chemistry & high throughput screening, 2015).

Structures are written as SMILES.

One experiment concerns the target KIT (D816V) (Homo sapiens, UniProt P10721, D816V). Description: Kinase active site-directed competition binding assay. To be noted: read-out: Percent Control at 10μM.
Another experiment has as its system hookworm tubulin. The note with it: cited from earlier work.
In another experiment the target is KIT (Homo sapiens, UniProt P10721). Description: Kinase active site-directed competition binding assay. The note with it: read-out: Percent Control at 10μM.
For the next experiment, the system named is mammalian tubulin. To be noted: fold less potency than on hookworm tubulin; cited from earlier work.

KIT (D816V), sequence (P10721 26-976 D816V): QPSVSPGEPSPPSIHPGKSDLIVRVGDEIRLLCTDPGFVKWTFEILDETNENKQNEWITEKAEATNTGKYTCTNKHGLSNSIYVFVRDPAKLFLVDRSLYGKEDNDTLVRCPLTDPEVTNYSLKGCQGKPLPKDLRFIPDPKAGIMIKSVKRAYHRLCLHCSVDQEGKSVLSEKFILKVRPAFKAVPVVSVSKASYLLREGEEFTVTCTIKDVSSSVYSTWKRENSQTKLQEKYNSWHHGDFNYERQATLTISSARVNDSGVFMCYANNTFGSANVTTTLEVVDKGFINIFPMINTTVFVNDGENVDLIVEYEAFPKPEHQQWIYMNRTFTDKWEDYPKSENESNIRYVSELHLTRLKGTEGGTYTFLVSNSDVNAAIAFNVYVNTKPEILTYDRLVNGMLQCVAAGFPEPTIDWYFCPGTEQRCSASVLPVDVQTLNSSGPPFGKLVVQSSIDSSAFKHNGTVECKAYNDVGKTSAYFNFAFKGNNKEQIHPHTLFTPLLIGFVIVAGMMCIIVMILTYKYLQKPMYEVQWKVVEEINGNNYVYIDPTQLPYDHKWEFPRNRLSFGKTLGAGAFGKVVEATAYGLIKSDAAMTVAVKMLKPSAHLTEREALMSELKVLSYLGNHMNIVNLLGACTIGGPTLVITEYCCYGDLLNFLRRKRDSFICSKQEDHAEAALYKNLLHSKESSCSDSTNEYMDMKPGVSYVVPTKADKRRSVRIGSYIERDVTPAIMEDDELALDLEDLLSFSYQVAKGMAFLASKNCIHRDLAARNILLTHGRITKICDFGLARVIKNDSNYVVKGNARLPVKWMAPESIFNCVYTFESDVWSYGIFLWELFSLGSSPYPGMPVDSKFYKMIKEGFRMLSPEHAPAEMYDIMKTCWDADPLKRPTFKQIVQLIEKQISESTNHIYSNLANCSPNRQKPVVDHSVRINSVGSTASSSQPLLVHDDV
KIT, sequence (P10721 26-976): as the sequence (P10721 26-976 D816V) above, with V791D counted along it

For `COC(=O)Nc1nc2ccc(C(=O)c3ccccc3)cc2[nH]1` [MBZ, mebendazole], the remaining binding at 10 µM on KIT (D816V) is 33%; at KIT, 7.4%. Besides, the “inhibition of hookworm tubulin (potency in words)” value with hookworm tubulin is recorded as “potent nanomolar inhibition”. Further, the “potency on mammalian tubulin relative to hookworm tubulin (fold less)” value with mammalian tubulin is reported as 1000 x.
